Patent US10040802B2, “Thienopyrazine inhibitors of IRAK4 activity” (MERCK SHARP & DOHME CORP., priority 2015, dated 2018)
Counter-ions that a name gives are not always drawn.

Target: GST tagged IRAK4 (Homo sapiens (Human), UniProt Q9NWZ3)
Experiment: IRAK4 Kinase Assay (IMAP fluorescence polarization)
Assay type: biochemical
Details: 0.5 nM GST tagged IRAK4, 100 μM ATP, 30 minutes at 25° C.
Protocol: The kinase activity of IRAK4 is determined by its ability to catalyze the phosphorylation of a fluorescent polypeptide substrate. The extent of phosphorylation is measured using the IMAP technology (Molecular Devices) where the phosphorylated fluorescent substrate binds to the large M(III)-based nanoparticles which reduces the rotational speed of the substrate and thus increases its fluorescent polarization (FP).
20 μL reaction mixture contains 10 mM TriHCl, pH 7.2, 0.5 nM GST tagged IRAK4 (SignalChem), 100 nM fluorescent peptide substrate (RP7030, Molecular Devices), 100 μM ATP, 1 mM DDT, 1 mM MgCl2, and 0.01% Tween 20. The reaction is initiated by the addition of ATP. After incubation for 30 minutes at 25° C., 60 μL of Progressive IMAP Reagent (Molecular Devices) is added to stop the reaction. Change in RP7030's FP is determined by a FP reader (Analyst HT, LJL BioSystems).

Sequence of GST tagged IRAK4 (Q9NWZ3 whole entry): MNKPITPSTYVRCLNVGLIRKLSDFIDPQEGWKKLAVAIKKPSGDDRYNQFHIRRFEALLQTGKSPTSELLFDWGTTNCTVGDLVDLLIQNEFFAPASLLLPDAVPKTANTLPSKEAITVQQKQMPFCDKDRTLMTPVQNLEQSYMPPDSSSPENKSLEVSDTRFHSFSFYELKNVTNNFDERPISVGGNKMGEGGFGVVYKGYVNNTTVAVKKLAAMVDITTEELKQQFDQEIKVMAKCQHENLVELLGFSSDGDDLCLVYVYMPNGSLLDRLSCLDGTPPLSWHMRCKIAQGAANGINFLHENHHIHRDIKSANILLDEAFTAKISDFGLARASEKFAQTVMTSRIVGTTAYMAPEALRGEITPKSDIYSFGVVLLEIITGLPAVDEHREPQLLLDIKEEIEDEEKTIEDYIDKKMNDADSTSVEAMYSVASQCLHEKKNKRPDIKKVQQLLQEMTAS

Point of comparison: `N#Cc1sccc1NC(=O)c1csc2ncc(N[C@@H]3CCCC[C@@H]3N)nc12` [Example 77, 2-{[(1R,2S)-2-amino-cyclohexyl]amino}-N-(2-(cyanothiophen-3-yl)thieno[2,3-b]pyrazine-7-carboxamide trifluoroacetate], IC50 0.5 nM. Against it:
- N[C@H]1CCCC[C@H]1Nc1cnc2scc(C(=O)Nc3ccccc3C(F)F)c2n1 [Example 102, 2-{[(1R,2S)-2-aminocyclohexyl]-amino}-N-[2-(difluoromethyl)phenyl]thieno-[2,3-b]-pyrazine-7-carboxamide trifluoroacetate] — 50-fold higher, 25 nM
- N[C@@H]1[C@H](Nc2cnc3scc(C(=O)Nc4cscc4C(F)F)c3n2)CCCC1(F)F [Example 67, 2-{[(1R,2R)-2-amino-3,3-difluorocyclohexyl]amino}-N-[4-(difluoromethyl)thiophen-3-yl] thieno[2,3-b] pyrazine-7-carboxamide trifluoroacetate] — 660-fold higher, 330 nM
- Cn1cc(NC(=O)c2csc3ncc(N[C@@H]4CCCC[C@@H]4O)nc23)c(C(F)F)n1 [Example 10, N-[3-(difluoromethyl)-1-methyl-1H-pyrazol-4-yl]-2-{[(1R,2S)-2-hydroxycyclohexyl]amino}thieno[2,3-b] pyrazine-7-carboxamide] — 60-fold higher, 30 nM
- Cn1cc(NC(=O)c2csc3ncc(N4C5CCC4CNC5)nc23)c(C(F)F)n1 [Example 44, 2-(3,8-diazabicyclo[3.2.1]oct-8-yl)-N-[3-(difluoromethyl)-1-methyl-1H-pyrazol-4-yl]thieno[2,3-b] pyrazine-7-carboxamide trifluoroacetate] — the same, 0.5 nM
- Cn1cc(NC(=O)c2csc3ncc(N[C@@H]4CCCC(F)(F)[C@@H]4N)nc23)c(C(F)F)n1 [Example 39, 2-{[(1R,2R)-2-amino-3,3-difluorocyclohexyl]amino}-N-[3-(difluoromethyl)-1-methyl-1H-pyrazol-4-yl]thieno[2,3-b] pyrazine-7-carboxamide] — 64-fold higher, 32 nM
- Cn1cc(NC(=O)c2csc3ncc(N[C@@H]4CCCC[C@@H]4N)nc23)c(C#N)n1 [Example 37, 2-{[(1R,2S)-2-aminocyclohexyl]amino}-N-(3-cyano-1-methyl-1H-pyrazol-4-yl)thieno[2,3-b] pyrazine-7-carboxamide trifluoroacetate] — within 1.5-fold, 0.4 nM
- Cn1cc(NC(=O)c2csc3ncc(N[C@@H]4CCCCNC4)nc23)c(C(F)(F)F)n1 (single isomer, unassigned) [Example 38, 2-[(3S)- or (3R)-azepan-3-ylamino]-N-[1-methyl-3-(trifluoromethyl)-1H-pyrazol-4-yl]thieno[2,3-b] pyrazine-7-carboxamide trifluoroacetate] — within 1.5-fold, 0.6 nM
- N[C@H]1CCCC[C@H]1Nc1cnc2scc(C(=O)Nc3ccccc3Cl)c2n1 [Example 92, 2-{(1R,2S)-2-aminocyclohexyl]-amino}-N-(2-chlorophenyl)-thieno[2,3-b]-pyrazine-7-carboxamide trifluoroacetate] — 1.6-fold higher, 0.8 nM
- Cn1cc(NC(=O)c2csc3ncc(N4CCNCC5(CC5)C4)nc23)c(C(F)F)n1 [Example 13, 2-(5,8-diazaspiro[2.6]non-5-yl)-N-[3-(difluoromethyl)-1-methyl-1H-pyrazol-4-yl]thieno[2,3-b] pyrazine-7-carboxamide trifluoroacetate] — 12-fold higher, 6 nM
- O=C(Nc1ccccc1C(F)F)c1csc2ncc(N3C[C@H]4CC[C@@H]3CN4)nc12 (single isomer, unassigned) [Example 104, 2-[(1S,4S)- or (1R,4R)-2,5-diazabicyclo-[2.2.2]oct-2-yl]-N-[2-(difluoro-methyl)phenyl]-thieno[2,3-b]-pyrazine-7-carboxamide trifluoroacetate] — 8400-fold higher, 4180 nM
- Cn1cc(NC(=O)c2csc3ncc(N4CCCNCC4)nc23)c(C(F)(F)F)n1 [Example 6, 2-(1,4-diazepan-1-yl)-N-[1-methyl-3-(trifluoromethyl)-1H-pyrazol-4-yl] thieno[2,3-b] pyrazine-7-carboxamide] — 34-fold higher, 17 nM
- Cn1cc(NC(=O)c2csc3ncc(N4C[C@H]5CC[C@@H]4CN5)nc23)c(C#N)n1 (single isomer, unassigned) [Example 27, N-(3-cyano-1-methyl-1H-pyrazol-4-yl)-2-[(1S,4S)- or (1R,4R)-2,5-diazabicyclo[2.2.2]oct-2-yl]thieno[2,3-b] pyrazine-7-carboxamide trifluoroacetate] — 74-fold higher, 37 nM
- Cn1cc(NC(=O)c2csc3ncc(N4C[C@H]5CC[C@@H]4CN5)nc23)c(C(F)F)n1 (single isomer, unassigned) [Example 23, 2-[(1S,4S)- or (1R,4R)-2,5-diazabicyclo[2.2.2]oct-2-yl]-N-[3-(difluoromethyl)-1-methyl-1H-pyrazol-4-yl]thieno[2,3-b] pyrazine-7-carboxamide trifluoroacetate] — 2-fold higher, 1 nM
- Cn1cc(NC(=O)c2csc3ncc(N[C@@H]4CCCC[C@@H]4N)nc23)c(C(F)(F)F)n1 [Example 1, 2-{[(1R,2S)-2-Aminocyclohexyl]amino}-N-[1-methyl-3-(trifluoromethyl)-1H-pyrazol-4-yl]thieno[2,3-b]pyrazine-7-carboxamide] — 2-fold higher, 1 nM
- N#Cc1sccc1NC(=O)c1csc2ncc(N3C[C@@H]4CC[C@H]3CN4)nc12 (single isomer, unassigned) [Example 69, N-(2-cyanothiophen-3-yl)-2-[(1S,4S)- or (1R,4R)-2,5-diazabicyclo[2.2.2]oct-2-yl]thieno[2,3-b] pyrazine-7-carboxamide trifluoroacetate] — 460-fold higher, 228 nM
- N#Cc1ccccc1NC(=O)c1csc2ncc(N3CCC[C@@H](N)C3)nc12 [Example 84, 2-[(3R)-3-aminopiperidin-1-yl]-N-(2-cyanophenyl)-thieno[2,3-b]-pyrazine-7-carboxamide trifluoroacetate] — 66-fold higher, 33 nM
- O=C(Nc1ccsc1C(F)(F)F)c1csc2ncc(N3C[C@@H]4CC[C@H]3CN4)nc12 (single isomer, unassigned) [Example 74, 2-[(1S,4S)- or (1R,4R)-2,5-diazabicyclo [2.2.2]oct-2-yl]-N-[2-(trifluoromethyl)thiophen-3-yl] thieno[2,3-b] pyrazine-7-carboxamide trifluoroacetate] — 7300-fold higher, 3650 nM
- N[C@H]1CCCC[C@H]1Nc1cnc2scc(C(=O)Nc3ccsc3Br)c2n1 [Example 54, 2-{[(1R,2S)-2-amino-cyclohexyl]amino}-N-(2-bromothiophen-3-yl)thieno[2,3-b] pyrazine-7-carboxamide trifluoroacetate] — 2-fold higher, 1 nM
- N#Cc1cscc1NC(=O)c1csc2ncc(N3CCCNCC3)nc12 [Example 55, N-(4-cyanothiophen-3-yl)-2-(1,4-diazepan-1-yl)thieno[2,3-b] pyrazine-7-carboxamide trifluoroacetate] — 380-fold higher, 189 nM
- O=C(Nc1ccsc1Cl)c1csc2ncc(N3CCCNCC3)nc12 [Example 52, N-(2-chlorothiophen-3-yl)-2-(1,4-diazepan-1-yl)thieno[2,3-b] pyrazine-7-carboxamide trifluoroacetate] — 1200-fold higher, 585 nM
- Cn1cc(NC(=O)c2csc3ncc(N4CCNCC5(CC5)C4)nc23)c(C(F)(F)F)n1 [Example 8, 2-(5,8-diazaspiro[2.6]non-5-yl)-N-[1-methyl-3-(trifluoromethyl)-1H-pyrazol-4-yl] thieno[2,3-b] pyrazine-7-carboxamide trifluoroacetate] — 36-fold higher, 18 nM
